Test results taken from PubChem BioAssay (NCI).
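Growth conditions: 96-well plates. Treatment: test compound, 48 hours, 5 concentrations. Analysis: linear interpolation between bracketing concentrations; unreached endpoints set to highest concentration. The concentration for 50% growth inhibition is given as GI50. TGI: total growth inhibition.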

Columns and labels:
Experiment in all cases: NCI tumour cell line growth inhibition, 48 h
NCI-H460 lung = test system: NCI-H460 lung
M14 melanoma = test system: M14 melanoma
HOP-92 NSCLC = test system: HOP-92 NSCLC
OVCAR-3 ovarian = test system: OVCAR-3 ovarian
SF-295 CNS = test system: SF-295 CNS
U251 CNS = test system: U251 CNS
MDA-MB-435 = test system: MDA-MB-435
HCC-2998 colon = test system: HCC-2998 colon
SNB-75 CNS = test system: SNB-75 CNS
BT-549 breast = test system: BT-549 breast
HOP-62 NSCLC = test system: HOP-62 NSCLC
HCT-116 colon = test system: HCT-116 colon
NCI-H522 lung = test system: NCI-H522 lung
MALME-3M melanoma = test system: MALME-3M melanoma
UACC-62 melanoma = test system: UACC-62 melanoma
OVCAR-8 ovarian = test system: OVCAR-8 ovarian
DU-145 prostate = test system: DU-145 prostate
HL-60(TB) leukemia = test system: HL-60(TB) leukemia
HCT-15 colon = test system: HCT-15 colon
SN12C renal = test system: SN12C renal
MDA-MB-231 breast = test system: MDA-MB-231 breast
RXF 393 renal = test system: RXF 393 renal
MCF7 breast = test system: MCF7 breast
SK-OV-3 ovarian = test system: SK-OV-3 ovarian
OVCAR-5 ovarian = test system: OVCAR-5 ovarian
IGROV1 ovarian = test system: IGROV1 ovarian
OVCAR-4 ovarian = test system: OVCAR-4 ovarian
SK-MEL-28 melanoma = test system: SK-MEL-28 melanoma
RPMI-8226 leukemia = test system: RPMI-8226 leukemia
K-562 leukemia = test system: K-562 leukemia
UACC-257 melanoma = test system: UACC-257 melanoma
786-0 renal = test system: 786-0 renal
MOLT-4 leukemia = test system: MOLT-4 leukemia
ACHN renal = test system: ACHN renal
NCI-H23 lung = test system: NCI-H23 lung
SF-539 CNS = test system: SF-539 CNS
SF-268 CNS = test system: SF-268 CNS
SK-MEL-5 melanoma = test system: SK-MEL-5 melanoma
COLO 205 colon = test system: COLO 205 colon
SNB-19 CNS = test system: SNB-19 CNS
SW-620 colon = test system: SW-620 colon
SK-MEL-2 melanoma = test system: SK-MEL-2 melanoma
PC-3 prostate = test system: PC-3 prostate
TK-10 renal = test system: TK-10 renal
HT29 colon = test system: HT29 colon
KM12 colon = test system: KM12 colon
SR leukemia = test system: SR leukemia
NCI-H226 lung = test system: NCI-H226 lung
CCRF-CEM leukemia = test system: CCRF-CEM leukemia
LOX IMVI melanoma = test system: LOX IMVI melanoma
HS 578T breast = test system: HS 578T breast
T-47D breast = test system: T-47D breast
A549 NSCLC = test system: A549 NSCLC
CAKI-1 renal = test system: CAKI-1 renal

Structure (SMILES): Nc1c(C(=O)Nc2ccccn2)sc2nc3c(cc12)CCCCC3
- GI50 (NCI-H460 lung): 1.83 µM
- TGI (NCI-H460 lung): > 50 µM
- GI50 (M14 melanoma): 1.26 µM
- TGI (M14 melanoma): > 50 µM
- GI50 (HOP-92 NSCLC): 27.9 µM
- TGI (HOP-92 NSCLC): > 50 µM
- GI50 (OVCAR-3 ovarian): 1.63 µM
- TGI (OVCAR-3 ovarian): > 50 µM
- GI50 (SF-295 CNS): 1.56 µM
- TGI (SF-295 CNS): > 50 µM
- GI50 (U251 CNS): 2.64 µM
- TGI (U251 CNS): > 50 µM
- GI50 (MDA-MB-435): 0.25 µM
- TGI (MDA-MB-435): > 50 µM
- GI50 (HCC-2998 colon): 2.37 µM
- TGI (HCC-2998 colon): > 50 µM
- GI50 (SNB-75 CNS): 2.35 µM
- TGI (SNB-75 CNS): > 50 µM
- GI50 (BT-549 breast): 2.36 µM
- TGI (BT-549 breast): > 50 µM
- GI50 (HOP-62 NSCLC): 3.46 µM
- TGI (HOP-62 NSCLC): > 50 µM
- GI50 (HCT-116 colon): 1.77 µM
- TGI (HCT-116 colon): > 50 µM
- GI50 (NCI-H522 lung): 2.11 µM
- TGI (NCI-H522 lung): > 50 µM
- GI50 (MALME-3M melanoma): 34.3 µM
- TGI (MALME-3M melanoma): > 50 µM
- GI50 (UACC-62 melanoma): 3.06 µM
- TGI (UACC-62 melanoma): > 50 µM
- GI50 (OVCAR-8 ovarian): 2.87 µM
- TGI (OVCAR-8 ovarian): > 50 µM
- GI50 (DU-145 prostate): 1.88 µM
- TGI (DU-145 prostate): > 50 µM
- GI50 (HL-60(TB) leukemia): 1.34 µM
- TGI (HL-60(TB) leukemia): > 50 µM
- GI50 (HCT-15 colon): 1.38 µM
- TGI (HCT-15 colon): > 50 µM
- GI50 (SN12C renal): 3.59 µM
- TGI (SN12C renal): > 50 µM
- GI50 (MDA-MB-231 breast): 3.83 µM
- TGI (MDA-MB-231 breast): > 50 µM
- GI50 (RXF 393 renal): 1.4 µM
- TGI (RXF 393 renal): 4.86 µM
- GI50 (MCF7 breast): 0.851 µM
- TGI (MCF7 breast): > 50 µM
- GI50 (SK-OV-3 ovarian): 2.14 µM
- TGI (SK-OV-3 ovarian): > 50 µM
- GI50 (OVCAR-5 ovarian): 3.8 µM
- TGI (OVCAR-5 ovarian): > 50 µM
- GI50 (IGROV1 ovarian): 3.58 µM
- TGI (IGROV1 ovarian): > 50 µM
- GI50 (OVCAR-4 ovarian): 4.09 µM
- TGI (OVCAR-4 ovarian): > 50 µM
- GI50 (SK-MEL-28 melanoma): 6.23 µM
- TGI (SK-MEL-28 melanoma): > 50 µM
- GI50 (RPMI-8226 leukemia): 1.98 µM
- TGI (RPMI-8226 leukemia): > 50 µM
- GI50 (K-562 leukemia): 0.987 µM
- TGI (K-562 leukemia): > 50 µM
- GI50 (UACC-257 melanoma): > 50 µM
- TGI (UACC-257 melanoma): > 50 µM
- GI50 (786-0 renal): 1.78 µM
- TGI (786-0 renal): > 50 µM
- GI50 (MOLT-4 leukemia): 2.32 µM
- TGI (MOLT-4 leukemia): > 50 µM
- GI50 (ACHN renal): 2.71 µM
- TGI (ACHN renal): > 50 µM
- GI50 (NCI-H23 lung): 2.19 µM
- TGI (NCI-H23 lung): > 50 µM
- GI50 (SF-539 CNS): 1.39 µM
- TGI (SF-539 CNS): > 50 µM
- GI50 (SF-268 CNS): 4.89 µM
- TGI (SF-268 CNS): > 50 µM
- GI50 (SK-MEL-5 melanoma): 2.13 µM
- TGI (SK-MEL-5 melanoma): > 50 µM
- GI50 (COLO 205 colon): 1.42 µM
- TGI (COLO 205 colon): > 50 µM
- GI50 (SNB-19 CNS): 2.77 µM
- TGI (SNB-19 CNS): > 50 µM
- GI50 (SW-620 colon): 3.19 µM
- TGI (SW-620 colon): > 50 µM
- GI50 (SK-MEL-2 melanoma): 2.08 µM
- TGI (SK-MEL-2 melanoma): > 50 µM
- GI50 (PC-3 prostate): 2.59 µM
- TGI (PC-3 prostate): > 50 µM
- GI50 (TK-10 renal): 4.98 µM
- TGI (TK-10 renal): > 50 µM
- GI50 (HT29 colon): 1.75 µM
- TGI (HT29 colon): > 50 µM
- GI50 (KM12 colon): 1.95 µM
- TGI (KM12 colon): > 50 µM
- GI50 (SR leukemia): 0.521 µM
- TGI (SR leukemia): > 50 µM
- GI50 (NCI-H226 lung): 2.6 µM
- TGI (NCI-H226 lung): > 50 µM
- GI50 (CCRF-CEM leukemia): 1.91 µM
- TGI (CCRF-CEM leukemia): > 50 µM
- GI50 (LOX IMVI melanoma): 9.56 µM
- TGI (LOX IMVI melanoma): > 50 µM
- GI50 (HS 578T breast): 2.74 µM
- TGI (HS 578T breast): > 50 µM
- GI50 (T-47D breast): 1.79 µM
- TGI (T-47D breast): > 50 µM
- GI50 (A549 NSCLC): 2.47 µM
- TGI (A549 NSCLC): > 50 µM
- GI50 (CAKI-1 renal): 3.51 µM
- TGI (CAKI-1 renal): > 50 µM
